Key:
MCF7 = test: Cytotoxicity in human MCF7 cells assessed as reduction in cell viability incubated for 48 hrs by SRB assay; format: functional, cell-based; settings: MCF7, 48 h
MDA-MB-231 [1] = test: Cytotoxicity in human MDA-MB-231 cells assessed as reduction in cell viability incubated for 48 hrs by SRB assay; format: functional; settings: MDA-MB-231, 48 h
HCT-116 = test: Cytotoxicity in human HCT116 cells assessed as reduction in cell viability incubated for 96 hrs by SRB assay; format: functional, cell-based; settings: HCT-116, 96 h
HCT-8 = test: Cytotoxicity in human HCT8 cells assessed as reduction in cell viability incubated for 96 hrs by SRB assay; format: functional, cell-based; settings: HCT-8, 96 h
HT-29 = test: Cytotoxicity in human HT-29 cells assessed as reduction in cell viability incubated for 96 hrs by SRB assay; format: functional, cell-based; settings: HT-29, 96 h
CT26 = test: Cytotoxicity in mouse CT26 cells assessed as reduction in cell viability incubated for 96 hrs by SRB assay; format: functional, cell-based; settings: CT26, 96 h
PC-3 = test: Cytotoxicity in human PC3 cells assessed as reduction in cell viability incubated for 96 hrs by SRB assay; format: functional, cell-based; settings: PC-3, 96 h
DU-145 = test: Cytotoxicity in human DU145 cells assessed as reduction in cell viability incubated for 96 hrs by SRB assay; format: functional, cell-based; settings: DU-145, 96 h
MDA-MB-231 [2] = test: Cytotoxicity in human MDA-MB-231 cells assessed as reduction in cell viability incubated for 96 hrs by SRB assay; format: functional, cell-based; settings: MDA-MB-231, 96 h
4T1 = test: Cytotoxicity in mouse 4T1 cells assessed as reduction in cell viability incubated for 96 hrs by SRB assay; format: functional, cell-based; settings: 4T1, 96 h
HepG2 = test: Cytotoxicity in human HepG2 cells assessed as reduction in cell viability incubated for 24 hrs by MTT assay; format: functional, cell-based; settings: HepG2, 24 h
HeLa = test: Cytotoxicity in human HeLa cells assessed as reduction in cell viability incubated for 24 hrs by MTT assay; format: functional, cell-based
[3] = Cytotoxicity in human HELF cells assessed as reduction in cell viability incubated for 24 hrs by MTT assay; format: cell-based

| SMILES | GI50 (MCF7) [µM] | GI50 (MDA-MB-231 [1]) [µM] | IC50 (HCT-116) [µM] | IC50 (HCT-8) [µM] | IC50 (HT-29) [µM] | IC50 (CT26) [µM] | IC50 (PC-3) [µM] | IC50 (DU-145) [µM] | IC50 (MDA-MB-231 [2]) [µM] | IC50 (4T1) [µM] | IC50 (HepG2) [µM] | IC50 (HeLa) [µM] | IC50 [3] [µM] |
| --- | --- | --- | --- | --- | --- | --- | --- | --- | --- | --- | --- | --- | --- |
| C[C@H]1[C@H](C)CC[C@]2(C(=O)OCCCn3cc(COC(=O)[C@]45CC[C@@H](C)[C@H](C)[C@@H]4C4=CC[C@@H]6[C@@]7(C)CC[C@H](O)C(C)(C)[C@@H]7CC[C@]6(C)[C@]4(C)CC5)cn3)CC[C@]3(C)C(=CC[C@@H]4[C@@]5(C)CC[C@H](O)C(C)(C)[C@@H]5CC[C@]43C)[C@H]12 | 12.7 | 3.8 |  |  |  |  |  |  |  |  |  |  |  |
| COC(=O)[C@@]1(C)CC[C@]2(C)CC[C@]3(C)C(=CC(=O)[C@@H]4[C@@]5(C)Cc6cn(C(=O)C7CCNCC7)nc6C(C)(C)[C@@H]5CC[C@]43C)[C@H]2C1 |  |  | 23.2 | 22.3 | 25.2 | 21.4 | 22.4 | 20.8 | 19.2 | 5.34 |  |  |  |
| CCOC(=O)c1[nH]nc2c1C[C@]1(C)[C@H]3C(=O)C=C4[C@H]5C[C@@](C)(C(=O)OCc6ccccc6)CC[C@]5(C)CC[C@@]4(C)[C@]3(C)CC[C@H]1C2(C)C |  |  | 8.2 | 9.96 | 12.5 | 17.7 | 19.6 | 23.8 | 16.6 | 5.75 |  |  |  |
| C=C(C)[C@@H]1CC[C@]2(C(=O)OCc3cnn(CCCOC(=O)[C@]45CC[C@@H](C)[C@H](C)[C@H]4C4=CC[C@@H]6[C@@]7(C)CC[C@H](O)C(C)(C)[C@@H]7CC[C@@]6(C)[C@]4(C)CC5)c3)CC[C@]3(C)[C@H](CC[C@@H]4[C@@]5(C)CC[C@H](O)C(C)(C)[C@@H]5CC[C@]43C)[C@@H]12 | 14.4 | 1.4 |  |  |  |  |  |  |  |  |  |  |  |
| COC(=O)[C@@]1(C)CC[C@]2(C)CC[C@]3(C)C(=CC(=O)[C@@H]4[C@@]5(C)Cc6c[nH]nc6C(C)(C)[C@@H]5CC[C@]43C)[C@H]2C1 |  |  | 13.2 | 31.5 | 32 | 26.1 | 26.5 | 30.3 | 33.2 | 14.7 |  |  |  |
| COC(=O)[C@@]1(C)CC[C@]2(C)CC[C@]3(C)C(=CC(=O)[C@@H]4[C@@]5(C)Cc6cn(C(=O)CCC7CCNCC7)nc6C(C)(C)[C@@H]5CC[C@]43C)[C@H]2C1 |  |  | 6.36 | 13.6 | 12.5 | 13 | 12 | 13.9 | 9.56 | 5.77 |  |  |  |
| C[C@H]1[C@H](C)CC[C@]2(C(=O)OCCCn3cc(COC(=O)[C@]45CC[C@@H](C)[C@H](C)[C@@H]4C4=CC[C@@H]6[C@@]7(C)C[C@H](O)[C@H](O)C(C)(C)[C@@H]7CC[C@]6(C)[C@]4(C)CC5)cn3)CC[C@]3(C)C(=CC[C@@H]4[C@@]5(C)CC[C@H](O)C(C)(C)[C@@H]5CC[C@]43C)[C@H]12 | 12 | 4.7 |  |  |  |  |  |  |  |  |  |  |  |
| CC(=O)O[C@H]1CC[C@]2(C)[C@H]3CC=C4[C@@H]5[C@@H](C)[C@H](C)CC[C@]5(C(=O)N5CCNCC5C)CC[C@@]4(C)[C@]3(C)CC[C@H]2C1(C)C (stereo partly specified) |  |  |  |  |  |  |  |  |  |  | 5.2 | 6.3 | 14.8 |
| CC(=O)O[C@H]1CC[C@]2(C)[C@H]3CC=C4[C@@H]5[C@@H](C)[C@H](C)CC[C@]5(C(=O)NCCCCCCCCN)CC[C@@]4(C)[C@]3(C)CC[C@H]2C1(C)C |  |  |  |  |  |  |  |  |  |  | 17.3 | 8.6 | 36.1 |
| CC1(C)c2n[nH]cc2C[C@]2(C)[C@H]3C(=O)C=C4[C@H]5C[C@@](C)(C(=O)OCc6ccccc6)CC[C@]5(C)CC[C@@]4(C)[C@]3(C)CC[C@@H]12 |  |  | 7.49 | 13.3 | 15.2 | 19.8 | 12.3 | 19 | 18.1 | 6.32 |  |  |  |
| C=C(C)[C@@H]1CC[C@]2(C(=O)O)CC[C@]3(C)[C@H](CC[C@@H]4[C@@]5(C)CC[C@H](O)C(C)(C)[C@@H]5CC[C@]43C)[C@@H]12 [BETULINIC ACID] | 11.3 | 22.9 |  |  |  |  |  |  |  |  |  |  |  |
| C[C@H]1[C@H](C)CC[C@]2(C(=O)O)CC[C@]3(C)C(=CC[C@@H]4[C@@]5(C)C[C@@H](O)[C@H](O)C(C)(C)[C@@H]5CC[C@]43C)[C@H]12 [COROSOLIC ACID] | 18.5 | 15.3 |  |  |  |  |  |  |  |  |  |  |  |

Reference: ChEMBL document CHEMBL4270495, “Oleanane-, ursane-, and quinone methide friedelane-type triterpenoid derivatives: Recent advances in cancer treatment” (Eur J Med Chem, 2017)
